# Earlier results, collected in patent publication US7910108B2, “Sheddase inhibitors combined with CD30-binding immunotherapeutics for the treatment of CD30 positive diseases” (Incyte Corporation, priority 2006, dated 2011).
# Read-outs that look alike come from different tables or passages of the source.
# How the values were obtained:
# CD30 [1] = conditions: in vitro; combined with anti-CD30 immunotoxins
# CD30 [2] = conditions: in vivo, rodent; administered concomitantly with anti-CD30 immunotoxins
structure (smiles),measurement,setting,value
CO[C@H](C(=O)NO)[C@@H](CC(C)C)C(=O)N[C@H](C(=O)Nc1ccccn1)C(C)(C)C [BB-3644],effectiveness of combination versus immunotoxin alone,CD30 [1],substantially more effective
same,effectiveness of combination versus immunotoxin alone,CD30 [2],substantially more effective
